Results as given in the supplement of paper PMC10307832.

Columns and labels:
Assay in all cases: relative viability (nuclei count vs DMSO), 5 days (fraction); higher = more cells survive
[1] = test system: BEN
Procedure, shortened: (§1)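 For relative viability, nuclei counts in treated wells were divided by those in vehicle wells. Lung cancer cell lines had been pin-tool dosed in 1536-well plates the day after seeding and cultured for 5 days, then fixed and stained in one step (final 0.05% Triton X-100, 1% formaldehyde, 1 ug/ml Hoechst) and imaged at 4×. Doses were one drug alone or a fixed anchor-drug dose plus five library-drug doses (not always all listed) in √10 steps, and values are duplicate-plate medians.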

[2] = test system: CAL-12T
Procedure, shortened: as §1

[3] = test system: COR-L23
Procedure, shortened: as §1

[4] = test system: HCC-44
Procedure, shortened: as §1

[5] = test system: LU99A
Procedure, shortened: as §1

[6] = test system: LXF-289
Procedure, shortened: as §1

[7] = test system: NCI-H1355
Procedure, shortened: as §1

[8] = test system: NCI-H1437
Procedure, shortened: as §1

[9] = test system: NCI-H1650
Procedure, shortened: as §1

[10] = test system: NCI-H1651
Procedure, shortened: as §1

[11] = test system: NCI-H1666
Procedure, shortened: as §1

[12] = test system: NCI-H1755
Procedure, shortened: as §1

[13] = test system: NCI-H1792
Procedure, shortened: as §1

[14] = test system: NCI-H1993
Procedure, shortened: as §1

[15] = test system: NCI-H2085
Procedure, shortened: as §1

[16] = test system: NCI-H2087
Procedure, shortened: as §1

[17] = test system: NCI-H2170
Procedure, shortened: as §1

[18] = test system: NCI-H460
Procedure, shortened: as §1

[19] = test system: NCI-H520
Procedure, shortened: as §1

[20] = test system: PC-14
Procedure, shortened: as §1

[21] = test system: SK-MES-1
Procedure, shortened: as §1

Structure (SMILES): CCNC(=O)c1noc(-c2cc(C(C)C)c(O)cc2O)c1-c1ccc(CN2CCOCC2)cc1 [Luminespib] + CC(=O)Nc1cccc(-n2c(=O)n(C3CC3)c(=O)c3c(Nc4ccc(I)cc4F)n(C)c(=O)c(C)c32)c1 [Trametinib] (partner 0.02 µM)
- relative viability ([1]; first compound 0.002 µM): 1.11
- relative viability ([1]; first compound 0.006325 µM): 1
- relative viability ([1]; first compound 0.02 µM): 0.481
- relative viability ([1]; first compound 0.06325 µM): 0.748
- relative viability ([1]; first compound 0.2 µM): 0.341
- relative viability ([2]; first compound 0.002 µM): 0.321
- relative viability ([2]; first compound 0.006325 µM): 0.356
- relative viability ([2]; first compound 0.02 µM): 0.162
- relative viability ([2]; first compound 0.06325 µM): 0.111
- relative viability ([2]; first compound 0.2 µM): 0.117
- relative viability ([3]; first compound 0.002 µM): 0.569
- relative viability ([3]; first compound 0.006325 µM): 0.462
- relative viability ([3]; first compound 0.02 µM): 0.223
- relative viability ([3]; first compound 0.06325 µM): 0.0665
- relative viability ([3]; first compound 0.2 µM): 0.0604
- relative viability ([4]; first compound 0.002 µM): 0.979
- relative viability ([4]; first compound 0.006325 µM): 1.19
- relative viability ([4]; first compound 0.02 µM): 1.24
- relative viability ([4]; first compound 0.06325 µM): 0.982
- relative viability ([4]; first compound 0.2 µM): 0.775
- relative viability ([5]; first compound 0.002 µM): 0.534
- relative viability ([5]; first compound 0.006325 µM): 0.493
- relative viability ([5]; first compound 0.02 µM): 0.378
- relative viability ([5]; first compound 0.06325 µM): 0.482
- relative viability ([5]; first compound 0.2 µM): 0.507
- relative viability ([6]; first compound 0.002 µM): 0.691
- relative viability ([6]; first compound 0.006325 µM): 0.649
- relative viability ([6]; first compound 0.02 µM): 0.669
- relative viability ([6]; first compound 0.06325 µM): 0.622
- relative viability ([6]; first compound 0.2 µM): 0.624
- relative viability ([7]; first compound 0.002 µM): 0.421
- relative viability ([7]; first compound 0.006325 µM): 0.445
- relative viability ([7]; first compound 0.02 µM): 0.265
- relative viability ([7]; first compound 0.06325 µM): 0.396
- relative viability ([7]; first compound 0.2 µM): 0.158
- relative viability ([8]; first compound 0.002 µM): 0.595
- relative viability ([8]; first compound 0.006325 µM): 0.52
- relative viability ([8]; first compound 0.02 µM): 0.492
- relative viability ([8]; first compound 0.06325 µM): 0.325
- relative viability ([8]; first compound 0.2 µM): 0.217
- relative viability ([9]; first compound 0.002 µM): 0.571
- relative viability ([9]; first compound 0.006325 µM): 0.565
- relative viability ([9]; first compound 0.02 µM): 0.178
- relative viability ([9]; first compound 0.06325 µM): 0.1
- relative viability ([9]; first compound 0.2 µM): 0.0947
- relative viability ([10]; first compound 0.002 µM): 0.787
- relative viability ([10]; first compound 0.006325 µM): 0.798
- relative viability ([10]; first compound 0.02 µM): 0.634
- relative viability ([10]; first compound 0.06325 µM): 0.754
- relative viability ([10]; first compound 0.2 µM): 0.609
- relative viability ([11]; first compound 0.002 µM): 0.845
- relative viability ([11]; first compound 0.006325 µM): 0.869
- relative viability ([11]; first compound 0.02 µM): 0.942
- relative viability ([11]; first compound 0.06325 µM): 0.818
- relative viability ([11]; first compound 0.2 µM): 0.982
- relative viability ([12]; first compound 0.002 µM): 0.783
- relative viability ([12]; first compound 0.006325 µM): 0.733
- relative viability ([12]; first compound 0.02 µM): 0.691
- relative viability ([12]; first compound 0.06325 µM): 0.765
- relative viability ([12]; first compound 0.2 µM): 0.701
- relative viability ([13]; first compound 0.002 µM): 0.407
- relative viability ([13]; first compound 0.006325 µM): 0.391
- relative viability ([13]; first compound 0.02 µM): 0.317
- relative viability ([13]; first compound 0.06325 µM): 0.0621
- relative viability ([13]; first compound 0.2 µM): 0.0632
- relative viability ([14]; first compound 0.002 µM): 0.562
- relative viability ([14]; first compound 0.006325 µM): 0.424
- relative viability ([14]; first compound 0.02 µM): 0.488
- relative viability ([14]; first compound 0.06325 µM): 0.461
- relative viability ([14]; first compound 0.2 µM): 0.474
- relative viability ([15]; first compound 0.002 µM): 0.535
- relative viability ([15]; first compound 0.006325 µM): 0.507
- relative viability ([15]; first compound 0.02 µM): 0.33
- relative viability ([15]; first compound 0.06325 µM): 0.202
- relative viability ([15]; first compound 0.2 µM): 0.241
- relative viability ([16]; first compound 0.002 µM): 0.197
- relative viability ([16]; first compound 0.006325 µM): 0.218
- relative viability ([16]; first compound 0.02 µM): 0.205
- relative viability ([16]; first compound 0.06325 µM): 0.146
- relative viability ([16]; first compound 0.2 µM): 0.11
- relative viability ([17]; first compound 0.002 µM): 0.915
- relative viability ([17]; first compound 0.006325 µM): 0.932
- relative viability ([17]; first compound 0.06325 µM): 0.896
- relative viability ([17]; first compound 0.2 µM): 0.841
- relative viability ([18]; first compound 0.002 µM): 0.205
- relative viability ([18]; first compound 0.006325 µM): 0.124
- relative viability ([18]; first compound 0.02 µM): 0.0112
- relative viability ([18]; first compound 0.06325 µM): 0.0128
- relative viability ([18]; first compound 0.2 µM): 0.0152
- relative viability ([19]; first compound 0.002 µM): 0.795
- relative viability ([19]; first compound 0.006325 µM): 0.606
- relative viability ([19]; first compound 0.02 µM): 0.371
- relative viability ([19]; first compound 0.06325 µM): 0.114
- relative viability ([19]; first compound 0.2 µM): 0.138
- relative viability ([20]; first compound 0.002 µM): 0.738
- relative viability ([20]; first compound 0.006325 µM): 0.652
- relative viability ([20]; first compound 0.02 µM): 0.243
- relative viability ([20]; first compound 0.06325 µM): 0.0663
- relative viability ([20]; first compound 0.2 µM): 0.0601
- relative viability ([21]; first compound 0.002 µM): 0.551
- relative viability ([21]; first compound 0.006325 µM): 0.469
- relative viability ([21]; first compound 0.02 µM): 0.576
- relative viability ([21]; first compound 0.06325 µM): 0.177
- relative viability ([21]; first compound 0.2 µM): 0.166
